The record followed here is patent publication US9480712B2, “Biomedical composition” (INDUSTRIAL TECHNOLOGY RESEARCH INSTITUTE, priority 2013, dated 2016).

Data set [1] has as its system U87MC cells. Briefly: Cytotoxicity analysis (MTT). To be noted: Homo sapiens, U-87 MG, U87 cells, 48 hours. It counts as cell-based.
Protocol: U87 cells were inoculated in a 96-well culture plate with a density of 1×10^4 cells/well, and cultured in a 37° C., 5% CO2 incubator for 1 day. […] Next, the old medium was removed from the culture plate and the culture plate was washed with medium three times. After the medium was removed from the culture plate, 100 μL of 0.5 mg/mL MTT reagent was added to the plate, and the culture plate was incubated at 37° C. for 4 hours. Then, the old medium was removed and 100 μL of 0.1 N HCl/isopropanol was added to the culture plate to dissolve the precipitate. Finally, the culture plate was placed in a ELISA reader to determine the absorbance at wavelength 570 nm, and the absorbance was converted into cell viability based on the following formula: Cell viability (%)=Intensity of sample/Intensity of control×100%.
The nature of data set [2]: Concentration of Pt in rat plasma by ICP-AES, pharmacokinetic parameters. Particulars: 0.5 mg/rat. It counts as in vivo, rats. The procedure: The rats were grouped, and 0.5 mg/rat oxaliplatin, Formulations PtHC101, PtHC305 and PtHC603, were respectively administered. After that, at different time points the blood samples were sampled from the rats, the concentrations of Pt in the plasma were analyzed by inductively coupled plasma with atomic emission spectroscopy (ICP-AES), and the original drug concentration in blood (CO), half-life (T ½), area under curve (AUC), volume of distribution (Vz), and clearance (Cl) of each formulation were calculated.

Data set [3] concerns HT-29 cells, human colon adenocarcinoma cell line. Briefly: Tumor growth inhibition in nude mice implanted with HT-29 cells. To be noted: 2 mg Pt/kg, tail vein, twice a week, 6 doses; day 14 to day 42. It counts as in vivo. The protocol: HT-29 cells, human colon adenocarcinoma cell line, were implanted into the backs of nude mice. After the size of the tumor reached 100-200 mm^3, the mice were administered hyaluronic acid derivative/DACHPt complex nano-carriers formed by Formulation PtHC604 (2 mg Pt/kg), oxaliplatin (2 mg Pt/kg) or 10% sucrose through tail vein injections twice a week, for a total of 6 doses. The size changes of the tumors were measured, regularly, and tumor growth inhibition (TGI) rate was calculated. Calculation formula is as follows: Tumor growth inhibition (TGI) (%)=[1−(Δ Tumor volume for drug treatment group/Δ Tumor volume for vehicle treatment group)]×100

The structures appear in SMILES notation.

In data set [1], `COc1cccc2c1C(=O)c1c(O)c3c(c(O)c1C2=O)C[C@@](O)(C(=O)CO)C[C@@H]3O[C@H]1C[C@H](N)[C@H](O)[C@H](C)O1` [Doxorubicin, doxorubicin] had an IC50 of 100 nM.
In data set [2], `O=C1[O][Pt]2([NH][C@@H]3CCCC[C@H]3[NH]2)[O]C1=O` [Oxaliplatin, oxaliplatin] gave an AUClast of 4202.6 ± 1280.2 ng·h/mL, a C0 of 6317.9 ± 4430.9 ng/mL, a Cl_pred of 221.7 ± 67.6 mL/h/kg and an HL_Lambda_z of 8.2 ± 1.1 h. Besides, in data set [2], the Vz_pred came to 2620.8 ± 868.5 mL/kg. For the same compound, the “tumor growth inhibition (TGI) rate” value in data set [3] is recorded as 42±8%.

Usually IC50 stands for the concentration at which inhibition is half-maximal. A lower IC50 goes with higher potency.
